Patent publication US10421751B2, “Dihydro-2H-benzo[b][1,4]oxazine sulfonamide and related compounds for use as agonists of RORγ and the treatment of disease” (Lycera Corporation, priority 2015, dated 2019)

How the values were obtained:
RORγ-LBD = molecular target: T1, RORγ-LBD (Homo sapiens, UniProt P51449); assay: RORγ-Ligand Binding Domain (LBD) TR-FRET Assay; assay type: biochemical; settings: for EC50: in presence of 2 μM RORγ antagonist ursolic acid, SRC1 coactivator peptide; for TR-FRET Assay Max Response: upper plateau of 4-parameter fit, signal in the absence of ursolic acid or test compound set as 100
T1 construct: made in house; host or cells: SF9 cells, baculovirus expression system; used as diluted lysate
T1 sequence (P51449 269-508 limits assumed): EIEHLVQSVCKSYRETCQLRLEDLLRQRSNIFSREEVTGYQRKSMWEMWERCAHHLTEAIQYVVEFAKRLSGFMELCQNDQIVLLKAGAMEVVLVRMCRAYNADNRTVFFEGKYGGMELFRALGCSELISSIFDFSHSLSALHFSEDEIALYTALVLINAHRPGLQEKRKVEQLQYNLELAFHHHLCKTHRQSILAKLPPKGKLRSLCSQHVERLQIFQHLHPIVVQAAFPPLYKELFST
Description: HIS-tagged RORγ-LBD protein was expressed in SF9 cells using a baculovirus expression system. The lysate was diluted in assay buffer (50 mM Tris pH 7.0, 50 mM KCl, 1 mM EDTA, 0.1 mM DTT, 0.01% BSA) to obtain RORγ-LBD final concentration of ˜3 nM in a 384-well assay plate (need to titrate for each batch of protein).
A stock of biotinylated-LXXLL peptide from coactivator SRC1 (Biotin-[…]) was prepared in assay buffer and added to each well (200 nM final concentration). A solution of Europium tagged anti-HIS antibody (0.6 nM final concentration) and APC-conjugated streptavidin (30 nM final concentration) were also added to each well. RORγ antagonist ursolic acid was also included at a final concentration of 2 μM. Compounds were diluted in DMSO and further diluted in assay buffer with a final DMSO concentration at 1%.
The final assay mixture was incubated overnight at 4° C. or 2 hours at room temperature, and the fluorescence signal was measured on an Envision plate reader: (Excitation filter=340 nm; APC emission=665 nm; Europium emission=615 nm; dichroic mirror=D400/D630; delay time=100 μs, integration time=200 μs). 50% Effective concentration (EC50) values for test compounds were calculated from the quotient of the fluorescence signal at 665 nm divided by the fluorescence signal at 615 nm. The quotient of the fluorescence signals in the absence of ursolic acid or test compound is set as 100. Max Response is defined as the upper plateau in the signal as determined by line-fit using a 4-parameter logistic model in PRISM (GraphPad).

Gal4-RORγ-LBD = molecular target: T2, Gal4-RORγ-LBD (Homo sapiens, UniProt P51449); assay: Gal4-RORγ Luciferase Reporter Assay in HEK-293T Cells; assay type: cell-based; settings: for EC50: HEK-293 cells, in presence of 2 μM ursolic acid, overnight incubation, read-out: Ga14-RORγ Assay EC50; for Ga14-RORγ Assay Max Response: upper plateau of 4-parameter fit, luciferase signal in the absence of ursolic acid or test compound defined at 100
T2 construct: expressed in transfected cells; pcDNA3.1neo plasmid, co-transfected with pGL4.31 Gal4-luciferase reporter
T2 sequence (P51449 269-508 limits assumed): T1 sequence (P51449 269-508 limits assumed)
Description: In the following protocol, HEK-293 cells were transfected with a construct comprising the Gal4 DNA binding domain fused to the ligand binding domain of RORγ (Gal4-RORγ-LBD) in a pcDNA3.1neo plasmid, and also with a reporter construct comprising pGL4.31 Gal4-luciferase (Promega). Control cells were prepared similarly using empty pcDNA3.1neo and pGL4.31 vectors.
Trans-IT reagent (Mirus, 60 μL) at room temperature was added drop wise to OptiMEM (Invitrogen, 1.5 ml). This reagent mixture was mixed by inversion then incubated for 5 to 30 minutes at room temperature. It then was added to a solution of both expression vectors (5 μg each), mixed, and incubated at room temperature for about 20 minutes. HEK-293 cells were harvested from incubation flasks by removing the media, treating with TrypLE Express (Invitrogen), and incubating until the cells detached from the bottom of the flask (approximately 2-5 minutes). 10 Million cells were collected by centrifugation and re-suspended in 10 mL of Dulbecco's Modified Eagle Medium, High Glucose (DMEM, Invitrogen) containing 10% Fetal Bovine Serum and 100 IU each of penicillin and streptomycin. The re-suspended cells and the transfection mixture were added to a T75 flask, mixed and incubated overnight at 37° C. and 5% CO2.
The cells were harvested as described above, counted, and centrifuged to obtain the desired number of cells, then re-suspended in complete growth media at 0.75×10^6 cells/mL. The RORγ antagonist, ursolic acid, was added to the cells at a final concentration of 2 μM. Cells were plated at 20 μL of cell suspension/well (10,000-15,000 cells/well) in white tissue culture treated 384 well plates. Test compounds were dissolved at 10 mM in DMSO then diluted into complete growth medium to 5× the final intended test concentration. These drug stock solutions, 5 μL/well were added to the tissue culture plate. The final DMSO concentration was 0.2%. The plates were briefly centrifuged then incubated overnight at 37° C. and 5% CO2. To conduct the assay, the tissue culture plates were allowed to equilibrate to room temperature and One-Glo luciferase reagent (Promega, 25 μL/well) was added. The plates were briefly centrifuged then incubated at room temperature for 10 minutes. The luciferase intensity was read on an Envision plate reader (Perkin Elmer). RORγ activity was determined relative to controls and plotted as a function of test compound concentration using PRISM (GraphPad) to determine a 50% effective concentration (EC50). The luciferase signal in the absence of ursolic acid or test compound is defined at 100. The Max Response is the upper plateau in the signal as determined by line-fit using a 4-parameter logistic model in PRISM (GraphPad).

| SMILES | EC50 (RORγ-LBD) [µM] | TR-FRET Assay Max Response (RORγ-LBD) | EC50 (Gal4-RORγ-LBD) [µM] | Ga14-RORγ Assay Max Response (Gal4-RORγ-LBD) |
| --- | --- | --- | --- | --- |
| C/C(=C\c1ccc2c(c1)N(S(=O)(=O)c1cccc(C(F)(F)F)c1)C[C@H](Oc1noc(=O)[nH]1)C2)c1c(F)cccc1Cl | 0.1 to 5 | *** (a value in the range of greater than 150 to 200) | 0.1 to 5 | ** (a value in the range of greater than 90 to 150) |
| C/C(=C\c1ccc2c(c1)N(S(=O)(=O)c1cccc(C(F)(F)F)c1)C[C@H](Oc1n[nH]c(=O)[nH]1)C2)c1c(F)cccc1Cl | < 0.1 | *** (a value in the range of greater than 150 to 200) | 5 to 10 | ** (a value in the range of greater than 90 to 150) |
| C/C(=C\c1ccc2c(c1)N(S(=O)(=O)c1cccc(C(F)(F)F)c1)[C@H](C)[C@H](Cn1ccnc1)C2)c1c(F)cccc1Cl | < 0.1 | *** (a value in the range of greater than 150 to 200) | 0.1 to 5 | ** (a value in the range of greater than 90 to 150) |
| C/C(=C\c1ccc2c(c1)N(S(=O)(=O)c1cccc(C(F)(F)F)c1)C[C@H](CCc1noc(=O)[nH]1)O2)c1c(F)cccc1Cl | < 0.1 | *** (a value in the range of greater than 150 to 200) | 0.1 to 5 | *** (a value in the range of greater than 150 to 200) |
| C/C(=C\c1ccc2c(c1)N(S(=O)(=O)c1cccc(C(F)(F)F)c1)C[C@H](CCn1ccnc1)O2)c1c(F)cccc1Cl | < 0.1 | *** (a value in the range of greater than 150 to 200) | 0.1 to 5 | ** (a value in the range of greater than 90 to 150) |
| C/C(=C\c1ccc2c(c1)N(S(=O)(=O)c1cccc(C(F)(F)F)c1)C[C@H](CCCn1ccnc1)O2)c1c(F)cccc1Cl | < 0.1 | *** (a value in the range of greater than 150 to 200) | 0.1 to 5 | ** (a value in the range of greater than 90 to 150) |
| C/C(=C\c1ccc2c(c1)N(S(=O)(=O)c1cccc(C(F)(F)F)c1)C[C@H](CCn1ccnn1)O2)c1c(F)cccc1Cl | < 0.1 | *** (a value in the range of greater than 150 to 200) | 0.1 to 5 | ** (a value in the range of greater than 90 to 150) |
| C/C(=C\c1ccc2c(c1)N(S(=O)(=O)c1cccc(C(F)(F)F)c1)C[C@H](CCn1cc(C(=O)O)nn1)O2)c1c(F)cccc1Cl | < 0.1 | *** (a value in the range of greater than 150 to 200) | 0.1 to 5 | *** (a value in the range of greater than 150 to 200) |
| O=c1[nH]nc(CC[C@H]2CN(S(=O)(=O)c3cccc(C(F)(F)F)c3)c3cc(/C=C/c4c(Cl)cccc4C(F)(F)F)ccc3O2)o1 | < 0.1 | *** (a value in the range of greater than 150 to 200) | 0.1 to 5 | ** (a value in the range of greater than 90 to 150) |
| C[C@@H]1[C@H](n2cc[nH]c2=O)Cc2ccc(/C=C/c3c(F)cccc3C(F)(F)F)cc2N1S(=O)(=O)c1cccc(C(F)(F)F)c1 | 0.1 to 5 | *** (a value in the range of greater than 150 to 200) | 0.1 to 5 | ** (a value in the range of greater than 90 to 150) |
| C/C(=C\c1ccc2c(c1)N(S(=O)(=O)c1cccc(C(F)(F)F)c1)C[C@H](Cc1n[nH]c(=O)o1)O2)c1c(F)cccc1Cl | < 0.1 | *** (a value in the range of greater than 150 to 200) | 0.1 to 5 | * (a value in the range of 40 to 90) |
| O=c1[nH]nc(CC[C@H]2CN(S(=O)(=O)c3cccc(C(F)(F)F)c3)c3cc(/C=C/c4ncccc4C(F)(F)F)ccc3O2)o1 | < 0.1 | *** (a value in the range of greater than 150 to 200) | 0.1 to 5 | ** (a value in the range of greater than 90 to 150) |
| COc1cc(S(=O)(=O)N2C[C@H](CCc3n[nH]c(=O)o3)Oc3ccc(/C=C(\C)c4c(F)cccc4Cl)cc32)ccc1F | < 0.1 | ** (a value in the range of greater than 90 to 150) | 0.1 to 5 | ** (a value in the range of greater than 90 to 150) |
| CCOc1nn(CC)cc1S(=O)(=O)N1C[C@H](CCc2n[nH]c(=O)o2)Oc2ccc(/C=C(\C)c3c(F)cccc3Cl)cc21 | < 0.1 | *** (a value in the range of greater than 150 to 200) | 0.1 to 5 | *** (a value in the range of greater than 150 to 200) |
| C/C(=C\c1ccc2c(c1)N(S(=O)(=O)c1cccc(C(F)(F)F)c1)C[C@H](CCOc1noc(=O)[nH]1)O2)c1c(F)cccc1Cl | < 0.1 | *** (a value in the range of greater than 150 to 200) | 0.1 to 5 | ** (a value in the range of greater than 90 to 150) |
| C/C(=C\c1ccc2c(c1)N(S(=O)(=O)c1cccc(OC(F)F)c1)C[C@H](CCOc1noc(=O)[nH]1)O2)c1c(F)cccc1Cl | < 0.1 | *** (a value in the range of greater than 150 to 200) | 0.1 to 5 | ** (a value in the range of greater than 90 to 150) |
| CCn1cc(S(=O)(=O)N2C[C@H](CCOc3noc(=O)[nH]3)Oc3ccc(/C=C(\C)c4c(F)cccc4Cl)cc32)c(Cl)n1 | < 0.1 | *** (a value in the range of greater than 150 to 200) | 0.1 to 5 | *** (a value in the range of greater than 150 to 200) |
| CCOc1nn(CC)cc1S(=O)(=O)N1C[C@H](CCOc2noc(=O)[nH]2)Oc2ccc(/C=C(\C)c3c(F)cccc3Cl)cc21 | < 0.1 | *** (a value in the range of greater than 150 to 200) | 0.1 to 5 | ** (a value in the range of greater than 90 to 150) |
| COc1cc(S(=O)(=O)N2C[C@H](CCOc3noc(=O)[nH]3)Oc3ccc(/C=C(\C)c4c(F)cccc4Cl)cc32)ccc1F | < 0.1 | *** (a value in the range of greater than 150 to 200) | 0.1 to 5 | **** (a value greater than 200) |
